Laboratory results reported in article PMC8851638 (ACS Omega, 2022).
≈ marks a conversion by molar mass, not a printed value. Where “and” joins values, the source holds several entries; their conditions need not be identical. Equal values may be shown once.

Columns and labels:
S. aureus (MDR00231) [1] = assay: Agar well-diffusion antimicrobial sensitivity assay; assay type: cell-based, Staphylococcus aureus; settings: Staphylococcus aureus, read-out: Inhibition Zone (IZ)
[2] = test system: S. epidermidis (MDR00223); assay: as above; assay type: cell-based, Staphylococcus epidermidis; settings: Staphylococcus epidermidis, read-out: Inhibition Zone (IZ)
E. coli (MDR00501) [3] = assay: as above; assay type: cell-based; settings: Escherichia coli, read-out: Inhibition Zone (IZ)
[4] = test system: C. albicans100 (MDR00100); assay: as above; assay type: cell-based, Candida albicans; settings: Candida albicans, read-out: Inhibition Zone (IZ)
[5] = test system: C. albicans200 (MDR00200); assay: as above; assay type: cell-based, Candida albicans; settings: Candida albicans, read-out: Inhibition Zone (IZ)
S. aureus (MDR00231) [6] = assay: MIC and MBC by broth microdilution; assay type: cell-based, Staphylococcus aureus
[7] = test system: S. epidermidis (MDR00223); assay: MIC and MBC by broth microdilution; assay type: cell-based, Staphylococcus epidermidis
B. subtilis (MDR00423) = assay: MIC and MBC by broth microdilution; assay type: cell-based
E. coli (MDR00501) [8] = assay: MIC and MBC by broth microdilution; assay type: cell-based
A. baumannii (MDR00521) = assay: MIC and MBC by broth microdilution; assay type: cell-based; settings: ratio in parentheses
K. pneumoniae (MDR00244) = assay: MIC and MBC by broth microdilution; assay type: cell-based; settings: ratio in parentheses
[9] = test system: C. albicans100 (MDR00100); assay: MIC and MFC by broth microdilution; assay type: cell-based, Candida albicans
[10] = test system: C. albicans200 (MDR00200); assay: MIC and MFC by broth microdilution; assay type: cell-based, Candida albicans
S. aureus biofilm = assay: Staphylococcus biofilm mass reduction; assay type: cell-based; settings: at their MIC
S. epidermidis biofilm = assay: Staphylococcus biofilm mass reduction; assay type: cell-based; settings: at their MIC
S. aureus [11] = assay: Single-step resistance selection; assay type: cell-based, Staphylococcus aureus; settings: 4 × MIC, 48 h
S. epidermidis [12] = assay: Single-step resistance selection; assay type: cell-based, Staphylococcus epidermidis; settings: 4 × MIC, 48 h
B. subtilis [13] = assay: Single-step resistance selection; assay type: cell-based; settings: 4 × MIC, 48 h
E. coli [14] = assay: Single-step resistance selection; assay type: cell-based; settings: 4 × MIC, 48 h
A. baumannii [15] = assay: Single-step resistance selection; assay type: cell-based; settings: 4 × MIC, 48 h
K. pneumoniae [16] = assay: Single-step resistance selection; assay type: cell-based; settings: 4 × MIC, 48 h
C. albicans100 [17] = assay: Single-step resistance selection; assay type: cell-based, Candida albicans; settings: 4 × MIC, 48 h
C. albicans200 [18] = assay: Single-step resistance selection; assay type: cell-based, Candida albicans; settings: 4 × MIC, 48 h
S. aureus [19] = assay: Checkerboard combination assay with Ciprofloxacin; assay type: cell-based, Staphylococcus aureus
S. epidermidis [20] = assay: Checkerboard combination assay with Ciprofloxacin; assay type: cell-based, Staphylococcus epidermidis
B. subtilis [21] = assay: Checkerboard combination assay with Ciprofloxacin; assay type: cell-based
E. coli [22] = assay: Checkerboard combination assay with Ciprofloxacin; assay type: cell-based
A. baumannii [23] = assay: Checkerboard combination assay with Ciprofloxacin; assay type: cell-based
K. pneumoniae [24] = assay: Checkerboard combination assay with Ciprofloxacin; assay type: cell-based
C. albicans100 [25] = assay: Checkerboard combination assay with Ketoconazole; assay type: cell-based, Candida albicans
C. albicans200 [26] = assay: Checkerboard combination assay with Ketoconazole; assay type: cell-based, Candida albicans
RBCs = assay: Hemolytic assay; assay type: cell-based; settings: human RBCs; compounds 1.0 mg/mL; Triton X-100 0.1% v/v; 37 °C, 35 min
E. coli DNA gyrase = E. coli DNA gyrase (Escherichia coli, UniProt P0AES4+P0AES6); assay: DNA gyrase inhibition; assay type: biochemical
[27] = target: T1, dihydrofolate reductase (DHFR) (Homo sapiens, UniProt P00374); assay: DHFR inhibition; assay type: biochemical
T1 sequence (P00374 1-187): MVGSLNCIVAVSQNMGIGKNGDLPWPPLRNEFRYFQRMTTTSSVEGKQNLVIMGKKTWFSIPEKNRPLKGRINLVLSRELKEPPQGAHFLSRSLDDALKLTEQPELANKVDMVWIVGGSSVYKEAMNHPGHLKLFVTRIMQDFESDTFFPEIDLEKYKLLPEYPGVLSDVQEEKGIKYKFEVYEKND

[28] = In vitro cytotoxicity on normal cell line; assay type: cell-based, mouse; settings: mouse, BNL normal liver cells
[29] = test system: BNL: mouse normal liver cells; assay: In vitro cytotoxicity on normal cell line; assay type: cell-based
[30] = In vitro cytotoxicity on normal cell line; assay type: cell-based, green monkey; settings: green monkey, Vero kidney cells
[31] = test system: Vero: green monkey kidney; assay: In vitro cytotoxicity on normal cell line; assay type: cell-based
[32] = In vitro cytotoxicity on normal cell line; assay type: cell-based, rat; settings: rat, H9C2 heart/myocardium cells
[33] = test system: H9C2: rat heart/myocardium; assay: In vitro cytotoxicity on normal cell line; assay type: cell-based
S. aureus [34] = assay: Time-kill kinetic assay; assay type: cell-based, Staphylococcus aureus
S. epidermidis [35] = assay: Time-kill kinetic assay; assay type: cell-based, Staphylococcus epidermidis; settings: 2 × MIC
B. subtilis [36] = assay: Time-kill kinetic assay; assay type: cell-based; settings: 2 × MIC
E. coli [37] = assay: Time-kill kinetic assay; assay type: cell-based
A. baumannii [38] = assay: Time-kill kinetic assay; assay type: cell-based; settings: 2 × MIC
K. pneumoniae [39] = assay: Time-kill kinetic assay; assay type: cell-based; settings: 2 × MIC
[40] = test system: clinical pathogenic isolates; assay: Single-step resistance selection, whole panel; assay type: cell-based; settings: 4 × MIC
[41] = test system: all the pathogenic isolates tested; assay: Time-kill kinetic assay, whole panel; assay type: cell-based

Chain of E. coli DNA gyrase (P0AES4 whole entry, one chain of several): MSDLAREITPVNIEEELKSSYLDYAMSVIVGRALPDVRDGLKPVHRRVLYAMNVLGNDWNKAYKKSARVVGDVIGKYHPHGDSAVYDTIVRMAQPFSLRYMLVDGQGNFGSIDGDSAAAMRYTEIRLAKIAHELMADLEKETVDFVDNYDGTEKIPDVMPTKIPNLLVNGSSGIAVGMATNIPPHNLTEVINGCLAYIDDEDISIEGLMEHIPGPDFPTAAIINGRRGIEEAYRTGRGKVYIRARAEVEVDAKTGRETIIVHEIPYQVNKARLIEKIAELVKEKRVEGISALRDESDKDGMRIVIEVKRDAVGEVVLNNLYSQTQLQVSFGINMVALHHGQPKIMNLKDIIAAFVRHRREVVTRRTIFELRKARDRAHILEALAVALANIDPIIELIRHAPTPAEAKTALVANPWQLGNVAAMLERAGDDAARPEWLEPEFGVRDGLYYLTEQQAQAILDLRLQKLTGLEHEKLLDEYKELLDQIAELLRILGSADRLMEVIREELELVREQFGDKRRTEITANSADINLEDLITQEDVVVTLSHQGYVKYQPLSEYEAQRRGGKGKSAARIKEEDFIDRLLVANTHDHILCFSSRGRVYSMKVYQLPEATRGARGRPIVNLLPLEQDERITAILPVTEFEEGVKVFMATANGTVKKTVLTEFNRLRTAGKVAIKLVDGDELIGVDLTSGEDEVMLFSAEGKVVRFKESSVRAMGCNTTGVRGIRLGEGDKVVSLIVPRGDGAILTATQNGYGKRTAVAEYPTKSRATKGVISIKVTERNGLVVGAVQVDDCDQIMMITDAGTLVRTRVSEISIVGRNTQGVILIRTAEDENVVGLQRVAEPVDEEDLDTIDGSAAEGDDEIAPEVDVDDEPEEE

What does the source list for CCOC(=O)c1c(N)csc1-c1cn(-c2ccccc2)nc1-c1ccc(C)cc1 [Compound 7b, Ethyl 4-Amino-2-(1-phenyl-3-(p-tolyl)-1H-pyrazol-4-yl)thiophene-3-carboxylate]?
zone of inhibition at 100000 µg/mL (S. aureus (MDR00231) [1]): 33 ± 0.32 mm; zone of inhibition at 100000 µg/mL [2]: 31 ± 0.16 mm; zone of inhibition at 100000 µg/mL (E. coli (MDR00501) [3]): 30 ± 0.5 mm; zone of inhibition at 100000 µg/mL [4]: 31 ± 0.11 mm; zone of inhibition at 100000 µg/mL [5]: 32 ± 0.32 mm; MBC/MIC (S. aureus (MDR00231) [6]; S. aureus, ratio in parentheses): 0.5; MIC (S. aureus (MDR00231) [6]; Staphylococcus aureus, read-out: MIC (mean ± SEM), S. aureus, broth microdilution): 0.22 ± 0.3 µg/mL (≈ 0.545 µM); MBC/MIC ([7]; S. epidermidis, ratio in parentheses): 0.5; MIC ([7]; Staphylococcus epidermidis, read-out: MIC (mean ± SEM), S. epidermidis, broth microdilution): 0.24 ± 0.2 µg/mL (≈ 0.595 µM); MBC/MIC (B. subtilis (MDR00423); B. subtilis, ratio in parentheses): 1; MIC (B. subtilis (MDR00423); Bacillus subtilis, read-out: MIC (mean ± SEM), B. subtilis, broth microdilution): 0.23 ± 0.6 µg/mL (≈ 0.57 µM); MBC/MIC (E. coli (MDR00501) [8]; E. coli, ratio in parentheses): 0.5; MIC (E. coli (MDR00501) [8]; Escherichia coli, read-out: MIC (mean ± SEM), E. coli, broth microdilution): 0.23 ± 0.1 µg/mL (≈ 0.57 µM); MBC/MIC (A. baumannii (MDR00521)): 1; MBC/MIC (K. pneumoniae (MDR00244)): 1; MFC/MIC ([9]; C. albicans100, ratio in parentheses): 1; MIC ([9]; Candida albicans, read-out: MIC (mean ± SEM), C. albicans100, broth microdilution): 0.25 ± 0.2 µg/mL (≈ 0.62 µM); MFC/MIC ([10]; C. albicans200, ratio in parentheses): 0.5; MIC ([10]; Candida albicans, read-out: MIC (mean ± SEM), C. albicans200, broth microdilution): 0.23 ± 0.3 µg/mL (≈ 0.57 µM); reduction of biofilm formation (S. aureus biofilm): 67%; reduction of biofilm formation (S. epidermidis biofilm): 58%; Single-step resistance frequency (mutation frequency) (S. aureus [11]): 1.34 × 10^–6; Single-step resistance frequency (mutation frequency) (S. epidermidis [12]): 1.62 × 10^–6; Single-step resistance frequency (mutation frequency) (B. subtilis [13]): 1.30 × 10^–7; Single-step resistance frequency (mutation frequency) (E. coli [14]): 1.90 × 10^–6; Single-step resistance frequency (mutation frequency) (A. baumannii [15]): 2.11 × 10^–6; Single-step resistance frequency (mutation frequency) (K. pneumoniae [16]): 1.67 × 10^–7; Single-step resistance frequency (mutation frequency) (C. albicans100 [17]): 2.51 × 10^–6; Single-step resistance frequency (mutation frequency) (C. albicans200 [18]): 3.10 × 10^–6; combination effect (S. aureus [19]): S (S: synergism); fractional inhibitory concentration index (FICI) (S. aureus [19]): 0.25; combination effect (S. epidermidis [20]): S (S: synergism); fractional inhibitory concentration index (FICI) (S. epidermidis [20]): 0.25; combination effect (B. subtilis [21]): S (S: synergism); fractional inhibitory concentration index (FICI) (B. subtilis [21]): 0.5; combination effect (E. coli [22]): S (S: synergism); fractional inhibitory concentration index (FICI) (E. coli [22]): 0.5; combination effect (A. baumannii [23]): S (S: synergism); fractional inhibitory concentration index (FICI) (A. baumannii [23]): 0.25; combination effect (K. pneumoniae [24]): S (S: synergism); fractional inhibitory concentration index (FICI) (K. pneumoniae [24]): 0.5; combination effect (C. albicans100 [25]): S (S: synergism); fractional inhibitory concentration index (FICI) (C. albicans100 [25]): 0.5; combination effect (C. albicans200 [26]): S (S: synergism); %lysis of RBCs (RBCs): 3.23% and 3.23 ± 0.58%; IC50 (E. coli DNA gyrase): 12.3 ± 0.34 µM; IC50 [27]: 0.52 ± 0.2 µM; IC50 at 72 h [28]: 103 ± 1.51 µM; Selectivity index against DHFR ([29]; IC50 of BNL / IC50 of DHFR): 198.65; Selectivity index against DNA gyrase ([29]; IC50 of BNL / IC50 of DNA gyrase): 8.41; IC50 at 72 h [30]: 78.8 ± 1.1 µM; Selectivity index against DHFR ([31]; IC50 of Vero / IC50 of DHFR): 151.61; Selectivity index against DNA gyrase ([31]; IC50 of Vero / IC50 of DNA gyrase): 6.42; IC50 at 72 h [32]: 102 ± 1.39 µM; Selectivity index against DHFR ([33]; IC50 of H9C2 / IC50 of DHFR): 195.44; Selectivity index against DNA gyrase ([33]; IC50 of H9C2 / IC50 of DNA gyrase): 8.28; time of maximum reduction (S. aureus [34]; 1/2 × MIC): 24 h; time after which cells were rapidly reduced (S. aureus [34]; 2 × MIC): 8 h; time after which cells were rapidly reduced (S. epidermidis [35]): 12 h; time after which cells were rapidly reduced (B. subtilis [36]): 12 h; time of maximum reduction (E. coli [37]; 1/2 × MIC): 24 h; time after which cells were rapidly reduced (E. coli [37]; 2 × MIC): 4 h; time after which cells were rapidly reduced (A. baumannii [38]): 8 h; time after which cells were rapidly reduced (K. pneumoniae [39]): 12 h; mutation frequency, range over panel [40]: 1.34 × 10^–6 to 1.67 × 10^–7; reduction in the viable cell count relative to the initial inoculum [41]: ≥ 3 log10
